Results published in US11471468B2, “Methods and systems for conditioning of particulate crystalline materials” (Pearl Therapeutics, Inc., priority 2013, dated 2022).

What was measured:
Format in all cases: physicochemical
[1] = Particle size distribution by laser diffraction (Sympatec) after processing; settings: for D10 / D50 / D90: Compound A, PSD; for X10: micronized GP, sampled immediately after processing
[2] = Residual solvent content by GC analysis
Description: Residual solvent content of the material from different batches was also analyzed. […] Residual solvent is partially removed using primary (ethanol) and secondary (water) conditioning.
Compound A (IUPAC: 7-[(1R)-2-[2-[2-fluoro-5-[[4-(2-isopropylthiazole-4-carbonyl)-1-oxa-4,9-diazaspiro[5.5]undecan-9-yl]methyl]phenyl]ethylamino]-1-hydroxy-ethyl]-4-hydroxy-3H-1,3-benzothiazol-2-one; di[[(1S,4R)-7,7-dimethyl-2-oxo-norbornan-1-yl]methanesulfonic acid] salt) was received with a 3.8% ethanol residual content. This material had been previously micronized and conditioned according to the present description to reduce the presence of isopropyl (IPA) and ethanol (EtOH) by solvent exchange/removal. The material was exposed to another conditioning gas that included water vapor, and was mixed with the conditioning gas in a conditioning zone for approximately 1.5 hours.

[3] = Amorphous content by (dynamic) vapor sorption; settings: for Calculated Amorphous Content, Collector 1 / Calculated Amorphous Content, Collector 2: conditioned GP, dynamic vapor sorption, n=2 replicates per collector; for % Amorphous Content Initial: micronized GP batches
Excerpt: (§1) A portion of the micronized GP was also conditioned using an in-process conditioning system wherein nitrogen conditioning gas was supplied to the in-process conditioning system and was controlled for flow rate, temperature and humidity. The conditioning gas was humidified through a droplet evaporation chamber after which it was directed to a mixing zone. In the mixing zone, the conditioning gas was mixed with the jet-milled aerosol comprising the micronized GP. The aerosol then entered a conditioning zone where annealing of the micronized GP occurred. The particle residence time through the conditioning zone was adjusted by means of the conditioning zone chamber geometry and/or the gas flow rate through the conditioning zone chamber. After passing through the conditioning zone, the micronized GP particles reached the cyclone-collection zone where the solid particles were separated from the gas phase and transported to a collection vessel. Upon completion of the batch processing, the collector was disengaged and transferred to a glove box for sampling. The sampling occurred in a <5% relative humidity environment. Samples were then analyzed for particle size distribution and amorphous content.
The amorphous content by vapor sorption and particle morphology for both batches were also assessed. FIG. 9 provides the ethanol vapor sorption isotherm at 25° C. for both batches of micronized budesonide.
The amorphous content by vapor sorption and particle morphology for both batches were also assessed. FIG. 11 provides the ethanol vapor sorption isotherm at 25° C. for both batches of micronized fluticasone.
All batches were also analyzed for amorphous content by dynamic vapor sorption using n=2 replicates per collector.
The amorphous content by vapor sorption and particle morphology for both batches of micronized sucrose were also assessed. FIG. 13 provides the water vapor sorption isotherm at 25° C. for both batches of micronized sucrose.

[4] = Particle size distribution by laser diffraction (Sympatec) after processing; settings: for D10 / D50 / D90: micronized/annealed GP, scale-up ~1 kg batches, mean of n=3 replicates per collector; for Physical stability after micronization judged from size distribution: laser diffraction, Tables 4 and 5; for X50 / X90: micronized GP, sampled immediately after processing
Excerpt: When referred to herein, the term “optical diameter” indicates the size of a particle as measured using a laser diffraction particle size analyzer equipped with a dry powder dispenser (e.g., Sympatec GmbH, Clausthal-Zellerfeld, Germany).
as §1
Both micronized sucrose batches were analyzed for particle size distribution by Sympatec laser diffraction.

[5] = Compound A batches of Example 6, residual solvent, listed as Compound A, 30° C./55% RS, 30° C./70% RH
[6] = Compound A batches of Example 6
[7] = Compound A batches of Example 6, residual solvent
[8] = Compound A batches of Example 6, residual solvent, listed as Compound A, Raw (un-milled)
[9] = micronized Compound A of Example 7, before/after about […] with water-vapor conditioning gas
[10] = listed as Batch A - Collector 1
[11] = listed as Batch A - Collector 2
[12] = listed as Batch B - Collector 1
[13] = listed as Batch B - Collector 2
[14] = listed as Batch C - Collector 1
[15] = listed as Batch C - Collector 2

7-[(1R)-2-[2-[2-fluoro-5-[[4-(2-isopropylthiazole-4-carbonyl)-1-oxa-4,9-diazaspiro[5.5]undecan-9-yl]methyl]phenyl]ethylamino]-1-hydroxy-ethyl]-4-hydroxy-3H-1,3-benzothiazol-2-one; di[[(1S,4R)-7,7-dimethyl-2-oxo-norbornan-1-yl]methanesulfonic acid] salt [Compound A, 30° C./55% RS (ethanol); 30° C./70% RH (water)]
D10 [1]: 0.6 μm
D50 [1]: 1.7 μm
D90 [1]: 3.2 μm
% EtOH (w/w) [2, 5]: 1.2% (w/w)
% IPA (w/w) [2, 5]: 2.1% (w/w)
% Water ([2]; Compound A batches of Example 6, listed as Compound A, 30° C./55% RS, 30° C./70% RH): 3.4%

7-[(1R)-2-[2-[2-fluoro-5-[[4-(2-isopropylthiazole-4-carbonyl)-1-oxa-4,9-diazaspiro[5.5]undecan-9-yl]methyl]phenyl]ethylamino]-1-hydroxy-ethyl]-4-hydroxy-3H-1,3-benzothiazol-2-one; di[[(1S,4R)-7,7-dimethyl-2-oxo-norbornan-1-yl]methanesulfonic acid] salt [Compound A, 30° C./70% RH]
D10 [1]: 0.6 μm
D50 [1]: 1.6 μm
D90 [1]: 3.1 μm
% Water [2, 6]: 3.4%
% EtOH (w/w) [2, 7]: 0.1% (w/w)
% IPA (w/w) [2, 7]: 3.6% (w/w)

7-[(1R)-2-[2-[2-fluoro-5-[[4-(2-isopropylthiazole-4-carbonyl)-1-oxa-4,9-diazaspiro[5.5]undecan-9-yl]methyl]phenyl]ethylamino]-1-hydroxy-ethyl]-4-hydroxy-3H-1,3-benzothiazol-2-one; di[[(1S,4R)-7,7-dimethyl-2-oxo-norbornan-1-yl]methanesulfonic acid] salt [Compound A, Raw (Un-milled)]
D10 [1]: 1.1 μm
D50 [1]: 3.7 μm
D90 [1]: 16.3 μm
% EtOH (w/w) [2, 8]: 0.0% (w/w)
% IPA (w/w) [2, 8]: 4.7% (w/w)
% Water ([2]; Compound A batches of Example 6, listed as Compound A, Raw (un-milled)): 3.1%

7-[(1R)-2-[2-[2-fluoro-5-[[4-(2-isopropylthiazole-4-carbonyl)-1-oxa-4,9-diazaspiro[5.5]undecan-9-yl]methyl]phenyl]ethylamino]-1-hydroxy-ethyl]-4-hydroxy-3H-1,3-benzothiazol-2-one; di[[(1S,4R)-7,7-dimethyl-2-oxo-norbornan-1-yl]methanesulfonic acid] salt [Compound A, Unannealed]
D10 [1]: 0.6 μm
D50 [1]: 1.6 μm
D90 [1]: 3.1 μm
% Water [2, 6]: 3.0%
% EtOH (w/w) [2, 7]: 0.2% (w/w)
% IPA (w/w) [2, 7]: 3.9% (w/w)

7-[(1R)-2-[2-[2-fluoro-5-[[4-(2-isopropylthiazole-4-carbonyl)-1-oxa-4,9-diazaspiro[5.5]undecan-9-yl]methyl]phenyl]ethylamino]-1-hydroxy-ethyl]-4-hydroxy-3H-1,3-benzothiazol-2-one; di[[(1S,4R)-7,7-dimethyl-2-oxo-norbornan-1-yl]methanesulfonic acid] salt [Compound A]
Ethanol residual content as received ([2]; Compound A as received, Example 7): 3.8%
Residual isopropyl alcohol solvent after manufacture ([2]; Compound A before micronization, Example 6): ~5%

7-[(1R)-2-[2-[2-fluoro-5-[[4-(2-isopropylthiazole-4-carbonyl)-1-oxa-4,9-diazaspiro[5.5]undecan-9-yl]methyl]phenyl]ethylamino]-1-hydroxy-ethyl]-4-hydroxy-3H-1,3-benzothiazol-2-one; di[[(1S,4R)-7,7-dimethyl-2-oxo-norbornan-1-yl]methanesulfonic acid] salt [Micronized Compound A, 30° C./70% RH (water)]
% EtOH (w/w) [2, 9]: 0.1% (w/w)
% IPA (w/w) [2, 9]: 0.0% (w/w)
% Water [2, 9]: 3.6%

7-[(1R)-2-[2-[2-fluoro-5-[[4-(2-isopropylthiazole-4-carbonyl)-1-oxa-4,9-diazaspiro[5.5]undecan-9-yl]methyl]phenyl]ethylamino]-1-hydroxy-ethyl]-4-hydroxy-3H-1,3-benzothiazol-2-one; di[[(1S,4R)-7,7-dimethyl-2-oxo-norbornan-1-yl]methanesulfonic acid] salt [Micronized Compound A, As Received]
% EtOH (w/w) [2, 9]: 3.8% (w/w)
% IPA (w/w) [2, 9]: 0.1% (w/w)
% Water [2, 9]: 3.1%

C[N+]1(C)CCC(OC(=O)C(O)(c2ccccc2)C2CCCC2)C1 (single isomer, unassigned) [Batch A, Glycopyrrolate]
Calculated Amorphous Content, Collector 1 [3]: 2.65%
Calculated Amorphous Content, Collector 2 [3]: 2.35%
D10 [4, 10]: 0.52 μm
D50 [4, 10]: 1.48 μm
D90 [4, 10]: 3.02 μm
D10 [4, 11]: 0.52 μm
D50 [4, 11]: 1.47 μm
D90 [4, 11]: 2.99 μm

C[N+]1(C)CCC(OC(=O)C(O)(c2ccccc2)C2CCCC2)C1 (single isomer, unassigned) [Batch B, Glycopyrrolate]
Calculated Amorphous Content, Collector 1 [3]: 2.65%
Calculated Amorphous Content, Collector 2 [3]: 2.40%
D10 [4, 12]: 0.52 μm
D50 [4, 12]: 1.47 μm
D90 [4, 12]: 3.02 μm
D10 [4, 13]: 0.52 μm
D50 [4, 13]: 1.46 μm
D90 [4, 13]: 2.99 μm

C[N+]1(C)CCC(OC(=O)C(O)(c2ccccc2)C2CCCC2)C1 (single isomer, unassigned) [Batch C, Glycopyrrolate]
Calculated Amorphous Content, Collector 1 [3]: 2.65%
Calculated Amorphous Content, Collector 2 [3]: 2.45%
D10 [4, 14]: 0.52 μm
D50 [4, 14]: 1.47 μm
D90 [4, 14]: 3.03 μm
D10 [4, 15]: 0.51 μm
D50 [4, 15]: 1.45 μm
D90 [4, 15]: 2.96 μm

C[N+]1(C)CCC(OC(=O)C(O)(c2ccccc2)C2CCCC2)C1 (centres unmarked) [Batch 1A, Glycopyrrolate]
% Amorphous Content Initial [3]: 17.9%

C[N+]1(C)CCC(OC(=O)C(O)(c2ccccc2)C2CCCC2)C1 (centres unmarked) [Batch 2B, Glycopyrrolate]
% Amorphous Content Initial [3]: 5.3%

C[N+]1(C)CCC(OC(=O)C(O)(c2ccccc2)C2CCCC2)C1 (centres unmarked) [Batch 2C, Glycopyrrolate]
% Amorphous Content Initial [3]: 0.9%

C[N+]1(C)CCC(OC(=O)C(O)(c2ccccc2)C2CCCC2)C1 (centres unmarked) [Batch 2D, Glycopyrrolate]
% Amorphous Content Initial [3]: 0.9%

C[N+]1(C)CCC(OC(=O)C(O)(c2ccccc2)C2CCCC2)C1 (centres unmarked) [Batch 2E, Glycopyrrolate]
% Amorphous Content Initial [3]: 2.6%

C[N+]1(C)CCC(OC(=O)C(O)(c2ccccc2)C2CCCC2)C1 (centres unmarked) [Batch 2F, Glycopyrrolate]
% Amorphous Content Initial [3]: 0.9%

C[N+]1(C)CCC(OC(=O)C(O)(c2ccccc2)C2CCCC2)C1 (centres unmarked) [Batch 2G, Glycopyrrolate]
% Amorphous Content Initial [3]: 2.3%

CCCC1O[C@@H]2C[C@H]3[C@@H]4CCC5=CC(=O)C=C[C@]5(C)[C@H]4[C@@H](O)C[C@]3(C)[C@]2(C(=O)CO)O1 (some centres unmarked) [Micronized Budesonide, Batch 1 (unannealed)]
Physical stability after micronization judged from size distribution [4]: potential agglomeration

CCCC1O[C@@H]2C[C@H]3[C@@H]4CCC5=CC(=O)C=C[C@]5(C)[C@H]4[C@@H](O)C[C@]3(C)[C@]2(C(=O)CO)O1 (some centres unmarked) [Micronized Budesonide, Batch 2 (annealed)]
Physical stability after micronization judged from size distribution [4]: good physical stability

C[N+]1(C)CCC(OC(=O)C(O)(c2ccccc2)C2CCCC2)C1 (centres unmarked) [Micronized GP, In-Process Conditioning, Glycopyrrolate]
X50 [4]: 1.5 μm
X90 [4]: 3.1 μm
X10 [1]: 0.6 μm

C[N+]1(C)CCC(OC(=O)C(O)(c2ccccc2)C2CCCC2)C1 (centres unmarked) [Micronized GP, Standard Jet Milling, Glycopyrrolate]
X50 [4]: 1.4 μm
X90 [4]: 3.0 μm
X10 [1]: 0.5 μm
